Test results from patent US8129415B2.

Assay: logP by HPLC on reversed-phase column (C 18), EEC Directive 79/831 Annex V.A8
Format: physicochemical
Settings: for LogP: HPLC reversed-phase C 18, 40° C., 0.1% aqueous formic acid and acetonitrile gradient

Compound | LogP | chromatographic logP
Cc1nnnn1C(=NOCc1csc(N)n1)c1ccccn1 [compound 1] | 0.83 | –
C=C(C)C(=O)Nc1nc(CON=C(c2ccccn2)n2nnnc2C)cs1 [compound 3] | 2.06 | –
CCCCCC(=O)Nc1nc(CON=C(c2ccccn2)n2nnnc2C)cs1 [compound 4] | 2.7 | –
Cc1nnnn1C(=NOCc1nonc1N)c1ccccn1 [compound 6] | 1.52 | –
Cc1nc(CON=C(c2ccccn2)n2nnnc2C)cs1 [compound 7] | 1.76 | –
Cc1nnnn1C(=NOCc1cccc(N)n1)c1ccccn1 [compound 9] | 0.76 | –
Cc1nnnn1C(=NOCc1noc(-c2ccco2)n1)c1ccccn1 [compound 11] | 2.38 | –
Cc1nnnn1C(=NOCc1csc(NC(=O)C2CC2)n1)c1ccccn1 [compound 14] | 1.99 | –
Cc1nnnn1C(=NOCc1csc(NC(=O)NCc2ccccc2)n1)c1ccccn1 [compound 15] | 2.15 | –
CCCNC(=O)Nc1nc(CON=C(c2ccccn2)n2nnnc2C)cs1 [compound 19] | 1.95 | –
Cc1nnnn1C(=NOCc1nsc(N)n1)c1ccccn1 [compound 21] | 1.3 | –
COc1ccc(CCNC(=O)Nc2nc(CON=C(c3ccccn3)n3nnnc3C)cs2)cc1 [compound 22] | 2.44 | –
Cc1nnnn1C(=NOCc1csc(NC(=O)NCCc2cccc(Cl)c2)n1)c1ccccn1 [compound 24] | 2.79 | –
Cc1nnnn1C(=NOCc1csc(NC(=O)NC2CC2)n1)c1ccccn1 [compound 26] | 1.61 | –
Cc1nnnn1C(=NOCc1csc(NC(=O)NC(C)(C)C)n1)c1ccccn1 [compound 28] | 2.16 | –
Cc1nnnn1/C(=N/OCc1csc(NC(=O)C(C)(C)C)n1)c1ccc(Cl)nc1 [compound 31] | – | 2.9
Cc1nnnn1C(=NOCc1csc(NC(=O)C2CCCCC2)n1)c1ccc(Cl)nc1 [compound 32] | 3.16 | –
Cc1nnnn1C(=NOCc1nonc1N)c1ccc(Cl)nc1 [compound 33] | 1.88 | –
Cc1nnnn1C(=NOCc1csc(N)n1)c1ccc(Cl)nc1 [compound 34] | 1.27 | –
Cc1nnnn1C(=NOCc1csc(NC(=O)c2ccccc2)n1)c1ccc(Cl)nc1 [compound 36] | 2.87 | –
Cc1nnnn1C(=NOCc1csc(NC(=O)C2CC2)n1)c1ccc(Cl)nc1 [compound 39] | 2.36 | –
Cc1nc(CON=C(c2ccc(Cl)nc2)n2nnnc2C)cs1 [compound 40] | 2.33 | –

Compound | LogP | chromatographic logP
Cc1nnnn1C(=NOCc1nsc(N)n1)c1ccc(Cl)nc1 [compound 44] | 1.78 | –
Cc1nnnn1C(=NOCc1csc(NC(=O)NC2CC2)n1)c1ccc(Cl)nc1 [compound 48] | 1.98 | –
Cc1nnnn1C(=NOCc1nc(Cc2ccccc2)no1)c1ccc(Cl)nc1 [compound 49] | 3.09 | –
Cc1nnnn1C(=NOCc1noc(-c2ccc(C(C)(C)C)cc2)n1)c1ccc(Cl)nc1 [compound 50] | 4.47 | –
COc1ccc(C(=O)Nc2nc(CON=C(c3ccc(Cl)nc3)n3nnnc3C)cs2)cc1 [compound 57] | 2.97 | –
Cc1nnnn1C(=NOCc1csc(NC(=O)C2CCCC2)n1)c1ccc(Cl)nc1 [compound 58] | 2.97 | –
Cc1nnnn1C(=NOCc1csc(NC(=O)c2cccs2)n1)c1ccc(Cl)nc1 [compound 59] | 2.82 | –
Cc1nnnn1C(=NOCc1csc(NC(=O)c2ccco2)n1)c1ccc(Cl)nc1 [compound 69] | 2.46 | –
COCCC(=O)Nc1nonc1CON=C(c1ccc(Cl)nc1)n1nnnc1C [compound 72] | 2.17 | –
Cc1ccc(OC(=O)Nc2nc(CON=C(c3ccc(Cl)nc3)n3nnnc3C)cs2)cc1 [compound 76] | 3.48 | –
COCCOCC(=O)Nc1nc(CON=C(c2ccc(Cl)nc2)n2nnnc2C)cs1 [compound 78] | 2.4 | –
Cc1cccc(C(=NOCc2csc(N)n2)n2nnnc2C)n1 [compound 80] | 1.2 | –
CCCC(=O)Nc1nc(CON=C(c2cccc(C)n2)n2nnnc2C)cs1 [compound 82] | 2.38 | –
Cc1cccc(C(=NOCc2csc(NC(=O)c3ccccc3)n2)n2nnnc2C)n1 [compound 83] | 2.78 | –
Cc1cccc(C(=NOCc2nonc2N)n2nnnc2C)n1 [compound 84] | 1.94 | –
Cc1cccc(C(=NOCc2noc(-c3cccc(C(F)(F)F)c3)n2)n2nnnc2C)n1 [compound 86] | 3.67 | –
Cc1cccc(/C(=N\OCc2cccc(N)n2)n2nnnc2C)n1 [compound 87, O-(2-Aminopyridin-6-yl)methyl-(6-methylpyridin-2-yl)-(5-methyltetrazol-1-yl)methanone oxime] | – | 1.18
CCCC(=O)Nc1cccc(CON=C(c2cccc(C)n2)n2nnnc2C)n1 [compound 90] | 2.7 | –
CCCCCC(=O)Nc1cccc(CO/N=C(\c2cccc(C)n2)n2nnnc2C)n1 [compound 92, O-[2-(Pentylcarbonylamino)pyridin-6-yl]methyl-(6-methylpyridin-2-yl)-(5-methyltetrazol-1-yl)methanone Oxime] | – | 3.43
Cc1cccc(C(=NOCc2noc(-c3ccc(C(C)(C)C)cc3)n2)n2nnnc2C)n1 [compound 93] | 4.5 | –
Cc1cccc(C(=NOCc2noc(-c3ccccc3)n2)n2nnnc2C)n1 [compound 95] | 3.11 | –
Cc1cccc(C(=NOCc2nsc(N)n2)n2nnnc2C)n1 [compound 96] | 1.59 | –

Second part, the compound after the results:

LogP | chromatographic logP | Compound
2.4 | – | C=C(C)C(=O)Nc1nc(CON=C(c2cccc(C)n2)n2nnnc2C)cs1 [compound 97]
2.01 | – | COC(=O)c1coc(CON=C(c2cccc(C)n2)n2nnnc2C)n1 [compound 98]
3.34 | – | Cc1cccc(C(=NOCc2csc(NC(=O)NCCc3ccc(Cl)c(Cl)c3)n2)n2nnnc2C)n1 [compound 102]
2.17 | – | CCCNC(=O)Nc1nc(CON=C(c2cccc(C)n2)n2nnnc2C)cs1 [compound 103]
2.59 | – | COc1cccc(CNC(=O)Nc2nc(CON=C(c3cccc(C)n3)n3nnnc3C)cs2)c1 [compound 104]
2.78 | – | Cc1cccc(C(=NOCc2csc(NC(=O)NCCc3ccc(F)cc3)n2)n2nnnc2C)n1 [compound 105]
3.43 | – | Cc1cccc(C(=NOCc2csc(NC(=O)NCCc3ccc(Cl)cc3Cl)n2)n2nnnc2C)n1 [compound 106]
2.72 | – | Cc1cccc(C(=NOCc2csc(NC(=O)NCCc3ccccc3)n2)n2nnnc2C)n1 [compound 107]
2.69 | – | COc1ccccc1CNC(=O)Nc1nc(CON=C(c2cccc(C)n2)n2nnnc2C)cs1 [compound 108]
3.44 | – | CCCCCC(=O)Nc1nc(CON=C(c2cnccc2OC)n2nnnc2C)cs1 [compound 136]
3.13 | – | COc1ccncc1C(=NOCc1csc(NC(=O)c2ccccc2)n1)n1nnnc1C [compound 137]
2.25 | – | COCCC(=O)Nc1nc(CON=C(c2cnccc2OC)n2nnnc2C)cs1 [compound 138]
3.31 | – | COc1ccncc1C(=NOCc1csc(NC(=O)CCc2ccccc2)n1)n1nnnc1C [compound 139]
5.03 | – | CCCCCCCCOC(=O)Nc1nc(CON=C(c2cnccc2OC)n2nnnc2C)cs1 [compound 147]
1.03 | – | COc1ncccc1C(=NOCc1cccc(N)n1)n1nnnc1C [compound 152]
2.27 | – | COc1ncccc1C(=NOCc1nc(N)sc1Br)n1nnnc1C [compound 153]
1.24 | – | COc1ncccc1C(=NOCc1csc(N)n1)n1nnnc1C [compound 154]
– | 1.04 | Cc1cccnc1/C(=N\OCc1csc(N)n1)c1nnnn1C [compound 157, O-(2-Amino-1,3-thiazol-4-yl)methyl-(3-methylpyridin-2-yl)-(1-methyltetrazol-5-yl)methanone Oxime]
– | 2.94 | CCCCCC(=O)Nc1nc(CO/N=C(\c2ncccc2C)c2nnnn2C)cs1 [compound 158, O-(2-Pentylcarbonylmino-1,3-thiazol-4-yl)methyl-(3-methylpyridin-2-yl)-(1-methyltetrazol-5-yl)methanone oxime]
2.62 | – | Cc1cccnc1C(=NOCc1csc(NC(=O)Cc2ccccc2)n1)c1nnnn1C [compound 159]
